A value given as a limit tells only on which side of the number the result lay.

Three molecules from patent US20220288052A1, “COMPOUND FOR COMBINATION TREATMENT” (priority 2019, published 2022) can be followed below.

Assay [1] concerns nialamide pre-treated mice. The assay is described as follows: Nialamide-induced 5-HT syndrome (m5-HT). The format is in vivo, mouse. The conditions noted are these: m5-HT, p.o. 0 min. The protocol: 50 mg/kg nialamide s.c. t=120 min. Compound (I) p.o. t=0. n=4.
(§1) Compound (I) was tested in a classical test often used to measure the ability of a compound to block the reuptake of 5-HT in vivo: nialamide-induced 5-HT syndrome (m5-HT). In addition, compound (I) was tested in a locomotor activity paradigm (mLA) as a measure of its ability to block the reuptake of DA and therefore induce motility. It is generally accepted that >60% DA transporter blockade is needed to induce increased motility in this test.

The test system of assay [2] is NMRI mice. Description: Mouse forced swim test (mFST). The class given is in vivo. The conditions noted are these: mFST (NMRI), p.o. 60 min. The protocol:
Compound (I) was tested in two of the most widely used behavioural screens for predicting antidepressant effects in the clinic: the mouse forced swim test (mFST) and mouse tail suspension test (mTST).
In order to further characterize the role played by 5-HT and DA-ergic neurotransmission in the antidepressant-like effects of compound (I), the potential involvement of 5-HT1A and D1 receptors was investigated in the mFST.

The test system of assay [3] is C57 mice. The assay is described as follows: Mouse tail suspension test (mTST). The class given is in vivo. The conditions noted are these: i.p. 30 min.
Procedure: C57 males, 25-28 g, Taconic, 16/8-06. Mice acclimatized to ground floor 5 days before testing. Mice saline injected once a day twice before test day. 22° C., N=7-8.
The subject of assay [4] is NMRI mice. Description: Locomotor activity (mLA). The class given is in vivo, mouse. The conditions noted are these: mLA; for MED: p.o. 0 min. The protocol:
FIG. 8: The effects of compound (I) on locomotor activity. Compound (I) p.o. in NMRI mice. TSE Motility.
as §1

For assay [5], the system named is NMRI mice. Description: Mouse stress-induced hyperthermia test (mSIH). The class given is in vivo. The conditions noted are these: mSIH, p.o., −60 min. The protocol:
FIG. 14: Stress-induced hyperthermia. When mice are confronted with a stress-full event, the body temperature rises.
(§2) Compound (I) was tested in three widely used behavioural screens for predicting anxiolytic effects in the clinic: the mouse marble burying test (mMB), mouse zero maze (mZM) and mouse stress-induced hyperthermia test (mSIH).

In assay [6] the test system is mice. Description: Mouse zero maze (mZM). The class given is in vivo. The conditions noted are these: mZero maze, p.o., 7 days OD. On the procedure: Mice were treated (peroral administration) for 7 days with either, vehicle, duloxetine (10 mg/kg), and compound I (0.1 mg/kg, 1 mg/kg, and 3 mg/kg) (n=8 in each group).
as §2

Assay [7] relates to NMRI mice. The assay is described as follows: Mouse marble burying test (mMB). The format is in vivo. The conditions noted are these: Marble burying, p.o., −60 min. The protocol: FIG. 13: Marble burying. In the marble-burying test mice exposed to a novel object (marbles) bury them in the sawdust floor covering. Compounds showing anxiolytic-like activity decrease the number of buried marbles at non-sedative doses. […] The number of marbles covered by sawdust was counted at the end of a 60-min session.
as §2

The target of assay [8] is T1, dopamine transporter (DAT) (Mus musculus, UniProt Q61327).
T1 construct: in vivo DAT transporter occupancy (open bars) in mouse striatum; from tissue; host or cells: mouse striatum (in vivo; C57 mice in the MPTP model)
The assay is described as follows: MPTP model of DAT inhibition (striatal dopamine depletion). The conditions noted are these: MPTP 25 mg/kg s.c. alone. Further details: Dopamine Mean ± SEM / DOPAC Mean ± SEM / HVA Mean ± SEM: unit not given here. The class given is in vivo, C57 mouse. The text has this: In this model compound (I) induced protection against the dopamine depletion induced by the entry of the MPTP metabolite MPP+ into the dopamine terminals of the mouse C57 striatal tissue.

T1 sequence (Q61327 whole entry): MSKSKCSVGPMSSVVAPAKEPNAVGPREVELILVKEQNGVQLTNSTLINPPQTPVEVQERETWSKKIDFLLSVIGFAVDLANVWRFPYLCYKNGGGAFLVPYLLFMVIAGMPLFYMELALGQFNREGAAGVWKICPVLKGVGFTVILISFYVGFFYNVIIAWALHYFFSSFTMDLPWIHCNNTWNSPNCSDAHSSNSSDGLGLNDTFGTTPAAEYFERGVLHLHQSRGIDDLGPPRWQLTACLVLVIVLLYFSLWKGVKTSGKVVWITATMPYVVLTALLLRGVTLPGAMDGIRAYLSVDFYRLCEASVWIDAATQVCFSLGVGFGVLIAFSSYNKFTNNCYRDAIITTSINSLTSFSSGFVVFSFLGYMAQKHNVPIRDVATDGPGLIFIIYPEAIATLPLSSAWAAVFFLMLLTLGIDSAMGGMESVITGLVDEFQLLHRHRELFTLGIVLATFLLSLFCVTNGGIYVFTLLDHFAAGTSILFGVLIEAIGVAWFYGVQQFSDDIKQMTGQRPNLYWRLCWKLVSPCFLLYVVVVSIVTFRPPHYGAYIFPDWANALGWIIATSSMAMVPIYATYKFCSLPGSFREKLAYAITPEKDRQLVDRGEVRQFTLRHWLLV

As for `CN(C)CCCC1(c2ccc(F)cc2)OCc2cc(C#N)ccc21` (stereo not drawn) [Citalopram, reference compound], the MED in assay [1] is recorded as 10 mg/kg; in assay [2], 10 mg/kg; in assay [3], less than 5 mg/kg; in assay [4], greater than 60 mg/kg.

`CNCC[C@H](Oc1cccc2ccccc12)c1cccs1` [Duloxetine, reference compound]: the MED in assay [1] is given as 10 mg/kg; in assay [2] it was 30 mg/kg; in assay [5], greater than 30 mg/kg; in assay [3], 10 mg/kg; in assay [6], less than 10 mg/kg; in assay [4], greater than 60 mg/kg. The molecule further returned an MED in assay [7] of 10 mg/kg. For the same molecule, in assay [4] (p.o.), the “Effect on locomotor activity” value is on record as “without effect”.

For `CN1CC=C(c2ccccc2)CC1` [MPTP, reference compound], in assay [8], the “DOPAC Mean ± SEM” value was 1 ± 0.2 and the “HVA Mean ± SEM” value stood at 0.7 ± 0.1. In assay [8] (mouse striatal tissue), the “Dopamine Mean ± SEM” value is listed as 4.2 ± 0.6.
